In patent US20050101595A1, “N-containing cycloalkyl-substituted amino-thiazole derivatives and pharmaceutical compositions for inhibiting cell proliferation and methods for their use” (PFIZER INC., priority 2003, published 2005):
Where a name gives a salt, the structure may show the parent alone. Read-outs that look alike come from different tables or passages of the source.

What was measured:
HCT-116 cell line = test: Inhibition of cell growth, tetrazolium salt (MTT) assay; format: cell-based; settings: Homo sapiens, HCT-116, 120 h, MTT, three to five days, read-out: HCT-116 IC50
How it was run: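 Growth inhibition by MTT reduction at 540 nm (0.2 mg/mL, 4 h at 37° C, formazan dissolved in DMSO), normalized to cells given only 0.5% v/v DMSO. HCT-116 cultures in McCoy's 5A were dosed 4 h post-plating and kept three to five days at 37° C, 5% CO2.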

CDK2/Cyclin A = CDK2/Cyclin A (Homo sapiens, UniProt P24941); test: Inhibition of CDK2/Cyclin A Retinoblastoma Kinase Activity; format: biochemical; settings: apparent Ki, CDK2/proteolyzed cyclin A, Rb fragment substrate, 25 μM ATP
How it was run: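 Percent inhibition is calculated against DMSO-only wells after subtracting no-enzyme background. The enzyme is human CDK2 complexed with proteolyzed cyclin A, used at 10 nM or 19 nM on an Rb fragment with 25 μM [32/33P]ATP, at pH 7.4 and 30° C.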

[1] = target: human CDK4 and genetically truncated (1-264) cyclin D3 (Homo sapiens, UniProt P11802); test: Inhibition of CDK4/Cyclin D Retinoblastoma Kinase Activity; format: biochemical; settings: apparent Ki, CDK4/truncated cyclin D3, Rb fragment substrate, 25 μM ATP
Chain of human CDK4 and genetically truncated (1-264) cyclin D3 (P11802 whole entry, the tested form may be a part): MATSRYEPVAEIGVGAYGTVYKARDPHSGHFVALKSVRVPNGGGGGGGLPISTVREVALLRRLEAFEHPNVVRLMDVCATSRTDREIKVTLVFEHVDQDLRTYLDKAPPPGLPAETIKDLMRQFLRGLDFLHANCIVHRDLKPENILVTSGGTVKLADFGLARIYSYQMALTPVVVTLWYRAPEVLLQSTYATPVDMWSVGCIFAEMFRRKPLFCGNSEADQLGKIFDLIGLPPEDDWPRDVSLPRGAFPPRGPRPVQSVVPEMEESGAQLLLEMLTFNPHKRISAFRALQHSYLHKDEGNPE
Chain of human CDK4 and genetically truncated (1-264) cyclin D3 (P30281 1-264 partner): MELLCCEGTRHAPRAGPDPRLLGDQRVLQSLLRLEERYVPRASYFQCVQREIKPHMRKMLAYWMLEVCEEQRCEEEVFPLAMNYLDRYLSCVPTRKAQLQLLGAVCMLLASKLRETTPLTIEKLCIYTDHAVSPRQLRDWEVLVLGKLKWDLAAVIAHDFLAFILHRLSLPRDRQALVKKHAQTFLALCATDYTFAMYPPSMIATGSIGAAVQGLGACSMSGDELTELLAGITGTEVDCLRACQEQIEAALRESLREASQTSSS
How it was run: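 Apparent Ki values derive from fitting activity at varied inhibitor concentrations to a competitive (or competitive tight-binding) model. Kinase reactions used 5 nM CDK4/cyclin D3(1-264), Rb fragment substrate and 25 μM ATP. Incubation ran 20 min at 30 °C, extended to 60 min under linear conditions for tight binders.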

| IC50 (HCT-116 cell line; first HCT-116 column (c4)) | IC50 (HCT-116 cell line; second HCT-116 column (c5)) | Ki (CDK2/Cyclin A) | Ki [1] | SMILES |
| --- | --- | --- | --- | --- |
| 4100 nM | > 5000 nM | 2 nM | 3.4 nM | Nc1nc(NC2CCN(S(=O)(=O)c3ccc(NCC(O)CO)nc3)CC2)sc1C(=O)c1c(F)cccc1F (stereo not drawn) [Example G19, 1-(4-Amino-2-{1-[6-(2,3-dihydroxy-propylamino)-pyridine-3-sulfonyl]-piperidin-4-ylamino}-thiazol-5-yl)-1-(2,6-difluoro-phenyl)-methanone] |
| 1900 nM | > 5000 nM | < 1 nM | 0.68 nM | CC1(C)CN(c2ccc(S(=O)(=O)N3CCC(Nc4nc(N)c(C(=O)c5c(F)cccc5F)s4)CC3)cn2)C=N1 [Example G21, 1-(4-Amino-2-{1-[6-(4,4-dimethyl-4,5-dihydro-imidazol-1-yl)-pyridine-3-sulfonyl]-piperidin-4-ylamino}-thiazol-5-yl)-1-(2,6-difluoro-phenyl)-methanone] |
| 210 nM | 3000 nM | 0.66 nM | 0.22 nM | CC1(C)CN(c2ccc(S(=O)(=O)N3CCC(Nc4nc(N)c(C(=O)c5c(F)cccc5F)s4)CC3)cn2)CCN1 [Example G22, 1-(4-Amino-2-{1-[6-(3,3-dimethyl-piperazin-1-yl)-pyridine-3-sulfonyl]-piperidin-4-ylamino}-thiazol-5-yl)-1-(2,6-difluoro-phenyl)-methanone] |
| 750 nM | 5000 nM | < 1 nM | 0.44 nM | CC1=NC(C)CN1c1ccc(S(=O)(=O)N2CCC(Nc3nc(N)c(C(=O)c4c(F)cccc4F)s3)CC2)cn1 (stereo not drawn) [Example G23, 1-(4-Amino-2-{1-[6-(2,4-dimethyl-4,5-dihydro-imidazol-1-yl)-pyridin-3-sulfonyl]-piperidin-4-ylamino}-thiazol-5-yl)-1-(2,6-difluoro-phenyl)-methanone Hydrochloride] |
| 290 nM | 620 nM | 0.85 nM | 0.48 nM | CN(C)CCN(C)c1ncc(S(=O)(=O)N2CCC(Nc3nc(N)c(C(=O)c4c(F)cccc4F)s3)CC2)cc1Br [Example G24, 1-[4-Amino-2-(1-{5-bromo-6-[(2-dimethylamino-ethyl)-methyl-amino]-pyridine-3-sulfonyl}-piperidin-4-ylamino)-thiazol-5-yl]-1-(2,6-difluoro-phenyl)-methanone] |

The remaining lines, values behind:

| SMILES | IC50 (HCT-116 cell line; first HCT-116 column (c4)) | IC50 (HCT-116 cell line; second HCT-116 column (c5)) | Ki (CDK2/Cyclin A) | Ki [1] |
| --- | --- | --- | --- | --- |
| Nc1nc(NC2CCN(S(=O)(=O)c3ccc(N4CCC[C@H]4CO)nc3)CC2)sc1C(=O)c1c(F)cccc1F [Example G14, 1-{4-Amino-2-{1-[6-(2S-hydroxymethyl-pyrrolidin-1-yl)-pyridine-3-sulfonyl]-piperidin-4-ylamino}-thiazol-5-yl)-1-(2,6-difluoro-phenyl)-methanone Trifluoroacetic Acid Salt] | 140 nM | 3500 nM | 0.5 nM | 0.8 nM |
| C[C@@H]1CN(c2ccc(S(=O)(=O)N3CCC(Nc4nc(N)c(C(=O)c5c(F)cccc5F)s4)CC3)cn2)C[C@H](C)N1 [Example G15, 1-(4-Amino-2-{1-[6-(3,5-dimethyl-piperizin-1-yl)-pyridin-3-sulfonyl]-piperidin-4-ylamino}-thiazol-5-yl)-1-(2,6-difluoro-phenyl)-methanone Trifluoroacetic Acid Salt] | 79 nM | > 500 nM | 0.73 nM | 0.28 nM |
| Nc1nc(NC2CCN(S(=O)(=O)c3ccc(N4CCN(C=O)CC4)nc3)CC2)sc1C(=O)c1c(F)cccc1F [Example G16, Trifluoroacetic Acid Salt] | 290 nM | > 5000 nM | 0.51 nM | 0.63 nM |
| C[C@@H](O)CN(C)c1ccc(S(=O)(=O)N2CCC(Nc3nc(N)c(C(=O)c4c(F)cccc4F)s3)CC2)cn1 [Example G17, 1-[4-Amino-2-(1-{6-[((R)-2-hydroxy-propyl)-methyl-amino]-pyridine-3-sulfonyl}-piperidine-4-ylamino)-thiazol-5-yl]-1-(2,6-difluoro-phenyl)-methanone Trifluoroacetic Acid Salt] | 360 nM | 900 nM | 0.55 nM | 1.4 nM |
